Like-named read-outs stand apart in the source and are kept apart here.
Tests used:
KM mice = experiment: animal or person; assay type: in vivo; details: for ED50: Mus musculus; for duration and recovery time compared with remimazolam / effective dose compared with remimazolam: mice, tail vein, in words
SD rats = experiment: animal or person; assay type: in vivo; details: for ED50: Rattus norvegicus; for duration and recovery time compared with remimazolam / effective dose compared with remimazolam: rats, tail vein, in words
[1] = KM mice, single tail vein injection at 2×ED50, time from disappearance to recovery of righting reflex
[2] = KM mice, single tail vein injection at 2×ED50, time from recovery of righting reflex to free crawling
[3] = KM mice (male, 18-22 g), injection via the tail vein, disappearance of righting reflex, read-out: ED50
[4] = SD rats (male, 220-300 g), injection via the tail vein, disappearance of righting reflex, read-out: ED50
[5] = SD rats, single tail vein injection at 2×ED50, time from disappearance to recovery of righting reflex
[6] = SD rats, single tail vein injection at 2×ED50, time from recovery of righting reflex to free crawling

**Q.** With `COC(=O)COC(=O)CC[C@@H]1N=C(c2ccccn2)c2cc(Br)ccc2-n2c(C)cnc21` [Example 56, 2-Methoxy-2-oxoethyl-3-((4S)-8-bromo-1-methyl-6-(pyridine-2-yl)-4H-benzo[f]imidazo[1,2-a][1,4]diaza-4-ylpropionate] as the compound, how does the 2ED50 duration (KM mice; [1]) read?
**A.** The 2ED50 duration was 4.08 min.

**Q.** What about the 2ED50 recovery time (KM mice; [2]) of the same compound?
**A.** Its 2ED50 recovery time is 1.20 min.

**Q.** What about the Quality of recovery (KM mice; KM mice, tail vein injection) of the same compound?
**A.** The Quality of recovery was “++ (“++” means 1-3 min)”.

**Q.** And the ED50 (KM mice; [3])?
**A.** The ED50 was 27.2 mg/kg.

**Q.** What about the ED50 (SD rats; [4]) of the same compound?
**A.** Its ED50 is 6.8 mg/kg.

**Q.** What about the “2ED50 duration” value (SD rats; [5]) of the same compound?
**A.** Its value is 1.05 min.

**Q.** What about the 2ED50 recovery time (SD rats; [6]) of the same compound?
**A.** The 2ED50 recovery time was 1.12 min.

**Q.** What about the Quality of recovery (SD rats; SD rats, tail vein injection) of the same compound?
**A.** The Quality of recovery was “++ (“++” means 1-3 min)”.

**Q.** With `COC(=O)OCOC(=O)CC[C@@H]1N=C(c2ccccn2)c2cc(Cl)c(F)cc2-n2c(C)cnc21` [Example 70, ((Methoxycarbonyl)oxy)methyl 3-((4S)-8-chloro-9-fluoro-1-methyl-6-(pyridine-2-yl)-4H-benzo[f]imidazo [1,2-a][1,4]diaza-4-ylpropionate borate] as the compound, how does the ED50 (KM mice) read?
**A.** The ED50 was 26.7 mg/kg.

**Q.** And the 2ED50 duration (KM mice; mouse, in vivo)?
**A.** The 2ED50 duration was 3.27 min.

**Q.** What about the 2ED50 recovery time (KM mice; mouse, in vivo) of the same compound?
**A.** The 2ED50 recovery time was 2.54 min.

**Q.** And the Quality of recovery (KM mice; mouse, in vivo)?
**A.** Its Quality of recovery is “+++ (key: “+” means <1 mm; “++” means 1-3 min; “+++” means 3-5 min; “++++” means 5-10 min; “+++++” means >10 mm)”.

**Q.** And the ED50 (SD rats)?
**A.** The ED50 was 4.6 mg/kg.

**Q.** And the “2ED50 duration” value (SD rats; rat, in vivo)?
**A.** Its value is 3.56 min.

**Q.** What about the 2ED50 recovery time (SD rats; rat, in vivo) of the same compound?
**A.** Its 2ED50 recovery time is 2.57 min.

**Q.** What about the Quality of recovery (SD rats; rat, in vivo) of the same compound?
**A.** The Quality of recovery was “+++ (key: “+” means <1 mm; “++” means 1-3 min; “+++” means 3-5 min; “++++” means 5-10 min; “+++++” means >10 mm)”.

**Q.** Which results are given for `COC(=O)OCOC(=O)CC[C@@H]1N=C(c2ccccn2)c2cc(Br)ccc2-n2c(C)cnc21` [Example 34]?
**A.** 2ED50 duration (KM mice; [1]): 1.31 min; 2ED50 recovery time (KM mice; [2]): 1.23 min; ED50 (KM mice; [3]): 14.4 mg/kg; duration and recovery time compared with remimazolam (KM mice): significantly shorter; effective dose compared with remimazolam (KM mice): significantly lower; ED50 (SD rats; [4]): 3.4 mg/kg; 2ED50 duration (SD rats; [5]): 1.21 min; 2ED50 recovery time (SD rats; [6]): 1.01 min; Quality of recovery (SD rats; SD rats, tail vein injection): + (“+” means <1 min); duration and recovery time compared with remimazolam (SD rats): significantly shorter; effective dose compared with remimazolam (SD rats): significantly lower

**Q.** With `Cc1cnc2n1-c1cc(Br)c(Cl)cc1C(c1ccncc1)=N[C@H]2CCC(=O)OCOC(=O)OC(C)(C)C` [Example 33] as the compound, how does the 2ED50 duration (KM mice; [1]) read?
**A.** Its 2ED50 duration is 3.21 min.

**Q.** And the 2ED50 recovery time (KM mice; [2])?
**A.** The 2ED50 recovery time was 1.48 min.

**Q.** And the Quality of recovery (KM mice; KM mice, tail vein injection)?
**A.** The Quality of recovery was “++ (“++” means 1-3 min)”.

**Q.** And the ED50 (KM mice; [3])?
**A.** The ED50 was 21.2 mg/kg.

**Q.** And the ED50 (SD rats; [4])?
**A.** The ED50 was 6.2 mg/kg.

**Q.** And the “2ED50 duration” value (SD rats; [5])?
**A.** Its value is 3.51 min.

**Q.** What about the 2ED50 recovery time (SD rats; [6]) of the same compound?
**A.** Its 2ED50 recovery time is 2.38 min.

**Q.** And the Quality of recovery (SD rats; SD rats, tail vein injection)?
**A.** Its Quality of recovery is “+++ (“+++” means 3-5 min)”.

**Q.** Which results are given for `COC(=O)C1(OC(=O)CC[C@@H]2N=C(c3ccccn3)c3cc(Cl)c(Cl)c(Cl)c3-n3c(C)cnc32)CC1` [Example 46]?
**A.** 2ED50 duration (KM mice; [1]): 1.21 min; 2ED50 recovery time (KM mice; [2]): 1.08 min; Quality of recovery (KM mice; KM mice, tail vein injection): +++ (“+++” means 3-5 min); ED50 (KM mice; [3]): 32 mg/kg; ED50 (SD rats; [4]): 6.3 mg/kg; 2ED50 duration (SD rats; [5]): 3.17 min; 2ED50 recovery time (SD rats; [6]): 2.28 min; Quality of recovery (SD rats; SD rats, tail vein injection): + (“+” means <1 min); duration and recovery time compared with remimazolam (SD rats): significantly shorter; effective dose compared with remimazolam (SD rats): significantly lower

**Q.** With `COC(=O)OC(C)OC(=O)CC[C@@H]1N=C(c2ccccn2)c2cc(Br)c(Br)cc2-n2c(C)cnc21` (stereo partly drawn) [Example 15] as the compound, how does the 2ED50 duration (KM mice; [1]) read?
**A.** The 2ED50 duration was 1.43 min.

**Q.** And the 2ED50 recovery time (KM mice; [2])?
**A.** Its 2ED50 recovery time is 1.01 min.

**Q.** What about the ED50 (KM mice; [3]) of the same compound?
**A.** The ED50 was 18.3 mg/kg.

**Q.** What about the “duration and recovery time compared with remimazolam” value (KM mice) of the same compound?
**A.** Its value is “significantly shorter”.

**Q.** And the “effective dose compared with remimazolam” value (KM mice)?
**A.** The value was “significantly lower”.

**Q.** And the ED50 (SD rats; [4])?
**A.** The ED50 was 1.5 mg/kg.

**Q.** And the “2ED50 duration” value (SD rats; [5])?
**A.** The value was 1.29 min.

**Q.** What about the 2ED50 recovery time (SD rats; [6]) of the same compound?
**A.** The 2ED50 recovery time was 1.01 min.

**Q.** What about the Quality of recovery (SD rats; SD rats, tail vein injection) of the same compound?
**A.** The Quality of recovery was “+ (“+” means <1 min)”.

**Q.** And the “duration and recovery time compared with remimazolam” value (SD rats)?
**A.** The value was “significantly shorter”.

**Q.** And the “effective dose compared with remimazolam” value (SD rats)?
**A.** Its value is “significantly lower”.

**Q.** Which results are given for `Cc1cnc2n1-c1ccc(Br)cc1C(c1ccccn1)=N[C@H]2CCC(=O)OCOC(=O)OC(C(C)C)C(C)C` [Example 52]?
**A.** 2ED50 duration (KM mice; [1]): >10 min; 2ED50 recovery time (KM mice; [2]): 1.49 min; Quality of recovery (KM mice; KM mice, tail vein injection): ++++ (“++++” means 5-10 min); ED50 (KM mice; [3]): 32 mg/kg; ED50 (SD rats; [4]): 6.8 mg/kg; 2ED50 duration (SD rats; [5]): 4.03 min; 2ED50 recovery time (SD rats; [6]): 2.41 min; Quality of recovery (SD rats; SD rats, tail vein injection): ++ (“++” means 1-3 min)

**Q.** For `Cc1cnc2n1-c1ccc(Br)cc1C(c1ccccn1)=N[C@H]2CCC(=O)OCOC(=O)OC(C)(C)C` [Example 49], which 2ED50 duration (KM mice; [1]) is on record?
**A.** Its 2ED50 duration is 2.65 min.

**Q.** What about the 2ED50 recovery time (KM mice; [2]) of the same compound?
**A.** Its 2ED50 recovery time is 1.22 min.

**Q.** What about the ED50 (KM mice; [3]) of the same compound?
**A.** Its ED50 is 20 mg/kg.

**Q.** What about the “duration and recovery time compared with remimazolam” value (KM mice) of the same compound?
**A.** The value was “significantly shorter”.

**Q.** And the “effective dose compared with remimazolam” value (KM mice)?
**A.** The value was “significantly lower”.

**Q.** And the ED50 (SD rats; [4])?
**A.** Its ED50 is 5 mg/kg.

**Q.** And the “2ED50 duration” value (SD rats; [5])?
**A.** The value was 1.24 min.

**Q.** What about the 2ED50 recovery time (SD rats; [6]) of the same compound?
**A.** The 2ED50 recovery time was 2.01 min.

**Q.** What about the Quality of recovery (SD rats; SD rats, tail vein injection) of the same compound?
**A.** The Quality of recovery was “+ (“+” means <1 min)”.

**Q.** And the “duration and recovery time compared with remimazolam” value (SD rats)?
**A.** Its value is “significantly shorter”.

**Q.** What about the “effective dose compared with remimazolam” value (SD rats) of the same compound?
**A.** The value was “significantly lower”.

Reference: patent US12473291B2 (priority 2019, dated 2025)
